Assay results as given in patent US6214846A, “Substituted 3-(benzylamino)piperidine derivatives and their use as therapeutic agents” (Merck Sharp & Dohme Limited, priority 1997, dated 2001).
Where a name gives a salt, the structure may show the parent alone.

Biological target: human NK1 receptor (Homo sapiens, UniProt P25103)
Experiment: IC50 at the human NK1 receptor (methods of pages 36 to 39 of WO 93/01165)
Format: binding
Conditions: test method of WO 93/01165
Description: The exemplified compounds of this invention were tested by the methods set out at pages 36 to 39 of International Patent Specification No. WO 93/01165.

human NK1 receptor, sequence (P25103 whole entry): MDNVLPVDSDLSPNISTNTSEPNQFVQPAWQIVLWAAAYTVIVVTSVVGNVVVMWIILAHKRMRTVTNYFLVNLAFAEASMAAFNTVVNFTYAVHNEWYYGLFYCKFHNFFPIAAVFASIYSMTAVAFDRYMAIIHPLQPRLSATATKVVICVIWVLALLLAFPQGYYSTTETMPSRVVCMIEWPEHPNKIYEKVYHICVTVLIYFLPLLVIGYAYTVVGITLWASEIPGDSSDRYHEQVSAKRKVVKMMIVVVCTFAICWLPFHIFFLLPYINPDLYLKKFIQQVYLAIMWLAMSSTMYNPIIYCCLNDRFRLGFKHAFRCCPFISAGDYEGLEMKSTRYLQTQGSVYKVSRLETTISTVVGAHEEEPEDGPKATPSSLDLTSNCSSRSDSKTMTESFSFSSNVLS

Row | IC50 | SMILES
1 | 0.17 nM | FC(F)(F)Oc1ccc(OC2CC2)c(CN[C@H]2CCCN[C@H]2c2ccccc2)c1 (relative stereo) [Example 1, (±)-(2R3R,2S3S)-N-{[2-Cyclopropoxy-5-(trifluoromethoxy)phenyl]methyl}-2-phenylpiperidin-3-amine Dihydrochloride]
2 | 0.2 nM | Fc1ccc([C@@H]2NCCC[C@@H]2NCc2cc(OC(F)(F)F)ccc2OC2CC2)cc1 (relative stereo) [Example 3, (±)-(2R3R,2S3S)-N-{[2-Cyclopropoxy-5-(trifluoromethoxy)phenyl]methyl}-2-(4-fluorophenyl)piperidin-3-amine Dihydrochloride]
